# The source made the active and inactive calls. The calls are words filed in the database; no cut-off is given here.
# Tests used:
# [1] = target: Mitogen-activated protein kinase 14 (Homo sapiens) (UniProt Q16539); details: HeLa, dose 50.0 µM
# [2] = target: Mitogen-activated protein kinase 14 (Homo sapiens) (UniProt Q16539); details: HeLa, dose 50.0 µM; remark: listed apart in the source
# Mitogen-activated protein kinase 14 (Homo sapiens), sequence (Q16539 whole entry): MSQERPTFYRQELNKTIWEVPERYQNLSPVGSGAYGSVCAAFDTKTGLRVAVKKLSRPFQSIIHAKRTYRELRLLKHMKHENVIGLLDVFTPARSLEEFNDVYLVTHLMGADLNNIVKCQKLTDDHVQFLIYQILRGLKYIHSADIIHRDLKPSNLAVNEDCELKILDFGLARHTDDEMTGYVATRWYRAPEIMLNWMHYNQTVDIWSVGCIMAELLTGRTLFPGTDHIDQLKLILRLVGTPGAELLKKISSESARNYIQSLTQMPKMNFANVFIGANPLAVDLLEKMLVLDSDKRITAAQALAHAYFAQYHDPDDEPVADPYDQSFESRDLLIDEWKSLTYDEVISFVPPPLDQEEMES
Structure (SMILES),ΔTm [1] [°C],Tm [2]
C/C(O)=C(\C#N)C(=O)Nc1cc(Br)ccc1Br,3.43,–
CC(C)(C)n1nc(-c2ccc(Cl)cc2)c2c(N)ncnc21,1.17,–
Oc1ccc(-c2nc(-c3ccc(F)cc3)c(-c3ccncc3)[nH]2)cc1,7.8,–
Cc1ncc(-c2ccnc(Nc3ccc(S(C)(=O)=O)cc3)n2)n1C(C)C,–,inactive

# Reference: ChEMBL document CHEMBL4715823, “Homogeneous Assay for Target Engagement Utilizing Bioluminescent Thermal Shift” (ACS Med Chem Lett, 2018)
